Measured values: patent US20240277798A1, “CYCLOSPORINE COMPOSITIONS AND METHODS OF USE” (Bacainn Biotherapeutics, Ltd., priority 2021, published 2024)

System: human neutrophils
Assay: PMN transmigration assay (Salmonella typhimurium-infected T84 monolayer, HXA3/MRP2-driven neutrophil migration, MPO readout)
Assay type: cell-based
Details: dose of 100 nM, result in words
Protocol: PMN transmigration assay. T84 colorectal cancer cells were grown to confluence on the bottom side of 12 well polycarbonate membrane inserts of a 24 well Transwell® plate. The confluent growth of these epithelial cells results in physiologically-relevant apical (luminal) and basolateral surfaces in the transwells. […] The monolayer was then infected on the apical surface with Salmonella typhimurium for 2 hours to induce hepoxilin A3 (HXA3) efflux through the MRP2 membrane protein and into the apical chamber. […] Freshly isolated and prepared human neutrophils were then added to the basolateral side and allowed to transmigrate through the monolayer for 2 hours. The number of neutrophils migrated to the apical chamber (due to the HXA3 gradient) was then assayed by determination of myeloperoxidase activity (a neutrophil biomarker). Inhibition of transmigration is indicated by lower MPO activity in the apical chamber.

With `CC[C@@H]1NC(=O)[C@H]([C@H](O)[C@H](C)CCCCC(=O)O)N(C)C(=O)[C@H](C(C)C)N(C)C(=O)[C@H](CC(C)C)N(C)C(=O)[C@H](CC(C)C)N(C)C(=O)[C@@H](C)NC(=O)[C@H](C)NC(=O)[C@H](CC(C)C)N(C)C(=O)[C@H](C(C)C)NC(=O)[C@H](CC(C)C)N(C)C(=O)CN(C)C1=O` [BT122] the “inhibition of neutrophil migration” value was “exhibit inhibition”.
For `CC[C@@H]1NC(=O)[C@H]([C@H](O)[C@H](C)CCCCCCC(=O)O)N(C)C(=O)[C@H](C(C)C)N(C)C(=O)[C@H](CC(C)C)N(C)C(=O)[C@H](CC(C)C)N(C)C(=O)[C@@H](C)NC(=O)[C@H](C)NC(=O)[C@H](CC(C)C)N(C)C(=O)[C@H](C(C)C)NC(=O)[C@H](CC(C)C)N(C)C(=O)CN(C)C1=O` [BT125], the “inhibition of neutrophil migration” value was “exhibit inhibition”.
